From patent US4510139A, “Substituted aminobenzamides and their use as agents which inhibit lipoxygenase activity” (Sterling Drug Inc., priority 1984, dated 1985)
Where two headings read alike, the source gives them in different places.

Experiments:
cyclooxygenase = biological target: T1, cyclooxygenase (Rattus norvegicus, UniProt Q63921); assay: Inhibition of cyclooxygenase derived from rat basophilic leukemia (RBL-1) cells, product C1 (PGD2); type: biochemical; conditions: for inhibition at 1 µM: dose of 1 μM
T1 construct: microsomal fraction containing lipoxygenase and cyclooxygenase; endogenous in cells; host or cells: RBL-1 (rat basophilic leukemia) cells, homogenate / microsomal fraction
T1 sequence (Q63921 27-602): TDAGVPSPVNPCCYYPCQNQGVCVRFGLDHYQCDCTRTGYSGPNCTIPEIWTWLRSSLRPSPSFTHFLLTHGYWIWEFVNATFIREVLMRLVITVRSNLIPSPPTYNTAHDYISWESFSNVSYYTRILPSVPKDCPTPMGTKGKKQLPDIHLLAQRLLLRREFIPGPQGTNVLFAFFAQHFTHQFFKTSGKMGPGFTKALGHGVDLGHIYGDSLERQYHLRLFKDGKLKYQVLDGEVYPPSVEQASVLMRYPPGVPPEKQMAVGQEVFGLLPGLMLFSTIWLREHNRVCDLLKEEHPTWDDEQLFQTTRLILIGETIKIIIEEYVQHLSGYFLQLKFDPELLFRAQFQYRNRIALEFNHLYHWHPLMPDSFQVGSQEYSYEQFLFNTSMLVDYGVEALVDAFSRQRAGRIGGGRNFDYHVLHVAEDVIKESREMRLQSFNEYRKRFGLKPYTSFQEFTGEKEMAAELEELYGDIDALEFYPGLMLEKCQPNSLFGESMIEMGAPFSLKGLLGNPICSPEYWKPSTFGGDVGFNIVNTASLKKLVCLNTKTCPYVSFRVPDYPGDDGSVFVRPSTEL
Protocol: (§1) The primary screening test used is a determination of the inhibition of lipoxygenase and cyclooxygenase derived from rat basophilic leukemia (RBL-1) cells. The test was carried out according to the following procedure:
(§2) Single cell suspensions of RBL-1 cells are homogenized to obtain the microsomal fraction containing lipoxygenase and cyclooxygenase. Test compounds are added to the enzyme-containing homogenate for a 5 min preincubation period at 37° C. prior to the addition of ^14 C-arachidonic acid substrate. Following incubation at 37° C. for 15 min, the reaction is stopped by the addition of 2M formic acid and the enzyme-substrate products are extracted into chloroform. An aliquot of the extract is evaporated to dryness, reconstituted in ether to 1/10 original volume, spotted in thin layer chromatography plates and chromatographed. The peak areas of radioactivity representing the products are located by scanning the plates. The quantity of products formed is estimated by measuring the height of the radioactivity peaks observed on the chromatographic scans. Alternatively, the areas of radioactivity are scraped from the plate and the ^14 C quantitated by scintillation counting.

lipoxygenase = biological target: T2, lipoxygenase (Rattus norvegicus, UniProt P12527); assay: Inhibition of lipoxygenase derived from rat basophilic leukemia (RBL-1) cells, products L1 (5,12-di-HETE) and L2 (5-HETE); type: biochemical; conditions: for inhibition at 10 µM: dose of 10 μM
T2 construct: microsomal fraction containing lipoxygenase and cyclooxygenase; endogenous in cells; host or cells: RBL-1 (rat basophilic leukemia) cells, homogenate / microsomal fraction
T2 sequence (P12527 1-673): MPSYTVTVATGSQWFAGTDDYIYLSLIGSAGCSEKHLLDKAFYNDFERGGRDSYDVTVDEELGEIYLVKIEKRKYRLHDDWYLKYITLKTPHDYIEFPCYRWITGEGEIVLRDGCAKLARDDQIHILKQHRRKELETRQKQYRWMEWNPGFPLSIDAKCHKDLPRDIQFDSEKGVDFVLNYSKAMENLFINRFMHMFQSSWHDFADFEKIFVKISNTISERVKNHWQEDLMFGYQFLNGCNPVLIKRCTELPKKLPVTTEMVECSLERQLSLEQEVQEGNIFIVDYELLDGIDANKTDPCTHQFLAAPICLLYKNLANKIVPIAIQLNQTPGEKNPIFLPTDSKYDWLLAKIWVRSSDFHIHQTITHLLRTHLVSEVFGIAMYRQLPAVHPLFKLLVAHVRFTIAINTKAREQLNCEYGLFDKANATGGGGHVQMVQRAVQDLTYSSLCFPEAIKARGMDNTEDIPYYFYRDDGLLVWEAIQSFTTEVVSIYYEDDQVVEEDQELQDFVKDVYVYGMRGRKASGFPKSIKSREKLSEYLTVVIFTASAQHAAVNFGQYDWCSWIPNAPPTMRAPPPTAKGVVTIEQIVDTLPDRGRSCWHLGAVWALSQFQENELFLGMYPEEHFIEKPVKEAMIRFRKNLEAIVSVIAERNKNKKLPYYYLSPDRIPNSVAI
Protocol: as §1, §2

[1] = tested on: SRS-A component of immunologically induced broncho-constriction; assay: Effect on the SRS-A component of immunologically induced broncho-constriction in guinea pigs; type: in vivo; conditions: guinea pig, intravenous, highest soluble dose (0.1 mg/kg)
Protocol: The test was carried out according to the following procedure:
Two weeks after immunization with egg albumin, guinea pigs are prepared for bronchoconstriction determination. One hour prior to antigen challenge, each animal is dosed orally with indomethacin and chlorpheniramine. Animals are anesthetized with sodium pentobarbital, the trachea cannulated and the animal artifically respired. Arachidonic acid is administered intravenously prior to antigen challenge. The resulting bronchoconstriction is recorded by the standard lung overflow procedure and the peak increase in intratracheal pressure (mm Hg) over a 10 minute observation period is recorded. Compounds are evaluated for their ability to prevent the increased intratracheal pressure in an experimental group of animals as compared to the medicated (indomethacin+chlorpheniramine+arachidonic acid) control group. The results are expressed in terms of percent inhibition or as ED50 values (effective dose in 50% of the animals).

[2] = read-out: % Inhibition of cyclooxygenase (C1) formation
[3] = read-out: % Inhibition of lipoxygenase (L1) formation
[4] = read-out: % Inhibition of lipoxygenase (L2) formation
[5] = dose of 1 μM, L1 = 5,12-di-HETE, read-out: % Inhibition of lipoxygenase (L1) formation
[6] = dose of 1 μM, L2 = 5-HETE, read-out: % Inhibition of lipoxygenase (L2) formation

| inhibition at 1 µM (cyclooxygenase; [2]) [%] | inhibition at 1 µM (lipoxygenase; [5]) [%] | inhibition at 1 µM (lipoxygenase; [6]) [%] | inhibition at 10 µM (cyclooxygenase; dose of 10 μM, read-out: % Inhibition of cyclooxygenase (C1) formation) [%] | inhibition at 10 µM (lipoxygenase; L1 = 5,12-di-HETE, read-out: % Inhibition of lipoxygenase (L1) formation) [%] | inhibition at 10 µM (lipoxygenase; L2 = 5-HETE, read-out: % Inhibition of lipoxygenase (L2) formation) [%] | SMILES | IC50 (cyclooxygenase) [nM] | IC50 (lipoxygenase; IC50 L1, L1 = 5,12-di-HETE) [nM] | IC50 (lipoxygenase; IC50 L2, L2 = 5-HETE) [nM] | inhibition at 1 µM (lipoxygenase; [3]) [%] | inhibition at 1 µM (lipoxygenase; [4]) [%] | percent inhibition of increased intratracheal pressure (bronchoconstriction) [1] [%] |
| --- | --- | --- | --- | --- | --- | --- | --- | --- | --- | --- | --- | --- |
| 0 | 41 | 52 |  |  |  | O=C(c1ccccc1Nc1ccc(O)cc1)N1CCCC1 [Example 4(b), 1-[2-(4-Hydroxyphenylamino)benzoyl]pyrrolidine] |  |  |  |  |  |  |
| 7 | 54 | 77 |  |  |  | CC1CCN(C(=O)c2ccccc2Nc2ccc(O)cc2)CC1 [Example 6(b), 1-[2-(4-Hydroxyphenylamino)benzoyl]-4-methylpiperidine] |  |  |  |  |  |  |
| 2 | 23 | 48 |  |  |  | CNC(=O)c1ccccc1Nc1ccc(O)cc1 [Example 7(b), 2-(4-Hydroxyphenylamino)-N-methylbenzamide] |  |  |  |  |  |  |
| 0 | 33 | 63 |  |  |  | CCN(CC)C(=O)c1ccccc1Nc1ccc(O)cc1 [Example 8(b), N,N-Diethyl-2-(4-hydroxyphenylamino)benzamide] |  |  |  |  |  |  |
| 0 | 72 | 78 |  |  |  | CC(C)NC(=O)c1ccccc1Nc1ccc(O)cc1 [Example 9(b), 2-(4-Hydroxyphenylamino)-N-isopropylbenzamide] |  |  |  |  |  |  |
| 1 | 34 | 56 |  |  |  | CN(C)C(=O)c1ccccc1Nc1ccc(O)cc1 [Example 10(b), 2-(4-Hydroxyphenylamino)-N,N-dimethylbenzamide] |  |  |  |  |  |  |
| 0 | 66 | 77 |  |  |  | CCN(C)C(=O)c1ccccc1Nc1ccc(O)cc1 [Example 13(b), 2-(4-Hydroxyphenylamino)-N-ethyl-N-methylbenzamide] |  |  |  |  |  |  |
| 1 | 37 | 42 |  |  |  | O=C(c1ccccc1Nc1ccc(O)cc1)N1CCOCC1 [Example 16(c), 4-[2-(4-Hydroxyphenylamino)benzoyl]morpholine] |  |  |  |  |  |  |
| 0 | 56 | 73 |  |  |  | CCN(CC)C(=O)c1cc(Cl)ccc1Nc1ccc(O)cc1 [Example 17(d), 5-Chloro-N,N-diethyl-2-(4-hydroxyphenylamino)benzamide] |  |  |  |  |  |  |
| 16 | 63 | 75 |  |  |  | O=C(c1cc(Cl)ccc1Nc1ccc(O)cc1)N1CCCCC1 [Example 18(b), 1-[5-Chloro-2-(4-hydroxyphenylamino)benzoyl]piperidine] |  |  |  |  |  |  |
| 7 | 24 | 42 |  |  |  | O=C(c1ccc(Cl)cc1Nc1ccc(O)cc1)N1CCCC1 [Example 19(d), 1-[4-Chloro-2-(4-hydroxyphenylamino)benzoyl]pyrrolidine] |  |  |  |  |  |  |
| 12 | 32 | 44 |  |  |  | O=C(c1ccc(Cl)cc1Nc1ccc(O)cc1)N1CCCCC1 [Example 20(b), 1-[4-Chloro-2-(4-hydroxyphenylamino)benzoyl]piperidine] |  |  |  |  |  |  |
|  |  |  |  |  |  | CNC(=O)c1ccc(Cl)cc1Nc1ccc(O)cc1 [Example 21(b), 4-Chloro-2-(4-hydroxyphenylamino)-N-methylbenzamide] | > 1000 | 360 | 180 |  |  |  |
|  |  |  | 42 | 47 | 56 | O=C(c1ccccc1Nc1cccc(O)c1)N1CCCCC1 [Example 24(d), 1-[2-(3-Hydroxyphenylamino)benzoyl]piperidine] |  |  |  |  |  |  |

| SMILES | inhibition at 1 µM (cyclooxygenase; [2]) [%] | inhibition at 1 µM (lipoxygenase; [5]) [%] | inhibition at 1 µM (lipoxygenase; [6]) [%] | inhibition at 10 µM (cyclooxygenase; dose of 10 μM, read-out: % Inhibition of cyclooxygenase (C1) formation) [%] | inhibition at 10 µM (lipoxygenase; L1 = 5,12-di-HETE, read-out: % Inhibition of lipoxygenase (L1) formation) [%] | inhibition at 10 µM (lipoxygenase; L2 = 5-HETE, read-out: % Inhibition of lipoxygenase (L2) formation) [%] | IC50 (cyclooxygenase) [nM] | IC50 (lipoxygenase; IC50 L1, L1 = 5,12-di-HETE) [nM] | IC50 (lipoxygenase; IC50 L2, L2 = 5-HETE) [nM] | inhibition at 1 µM (lipoxygenase; [3]) [%] | inhibition at 1 µM (lipoxygenase; [4]) [%] | percent inhibition of increased intratracheal pressure (bronchoconstriction) [1] [%] |
| --- | --- | --- | --- | --- | --- | --- | --- | --- | --- | --- | --- | --- |
| O=C(c1ccccc1Nc1ccc(O)cc1)N1CCCCC1 [Example 1(d), 1-[2-(4-Hydroxyphenylamino)benzoyl]piperidine] | 0 |  |  |  |  |  | > 100000 | 3500 | 600 | 19 | 64 | 48 |
| O=C1C=CC(=Nc2ccccc2C(=O)N2CCCCC2)C=C1 [Example 2, 1-{2-[(4-Oxo-2,5-cyclohexadien-1-ylidene)amino]benzoyl}piperidine] | 0 |  |  |  |  |  | > 1000 | 450 | 130 | 68 | 82 |  |
| NC(=O)c1ccccc1Nc1ccc(O)cc1 [Example 3(b), 2-(4-Hydroxyphenylamino)benzamide] | 14 |  |  |  |  |  | > 1000 | 310 | 150 | 78 | 83 |  |
| CCCNC(=O)c1ccccc1Nc1ccc(O)cc1 [Example 5(b), 2-(4-Hydroxyphenylamino)-N-propylbenzamide] | 6 |  |  |  |  |  | > 1000 | 130 | 110 | 62 | 85 |  |
| O=C(NC1CCCCC1)c1ccccc1Nc1ccc(O)cc1 [Example 12(b), N-Cyclohexyl-2-(4-hydroxyphenylamino)benzamide] | 0 |  |  |  |  |  | > 1000 | 120 | 110 | 80 | 94 |  |
| CCCN(CC)C(=O)c1ccccc1Nc1ccc(O)cc1 [Example 14(b), 2-(4-Hydroxyphenylamino)-N-ethyl-N-propylbenzamide] | 0 |  |  |  |  |  | > 1000 | 180 | 110 | 78 | 95 |  |
| O=C(c1ccccc1Nc1ccccc1O)N1CCCCC1 [Example 15(d), 1-[2-(2-Hydroxyphenylamino)benzoyl]piperidine] | 2 |  |  |  |  |  | > 1000 | 720 | 180 | 58 | 80 |  |
| COc1ccc(Nc2ccc(O)cc2)c(C(=O)NCc2ccccc2)c1 [Example 22(d), 2-(4-Hydroxyphenylamino)-N-benzyl-5-methoxybenzamide] | 0 |  |  |  |  |  | > 1000 | 300 | 260 | 81 | 97 |  |
| COc1ccc(Nc2ccc(O)cc2)c(C(=O)N2CCCCC2)c1 [Example 23(b), 1-[2-(4-Hydroxyphenylamino)-5-methoxybenzoyl]piperidine] | 19 |  |  |  |  |  | > 1000 | 540 | 610 | 89 | 96 |  |
